From US10143731B2, “Peptides and combination of peptides for use in immunotherapy against various cancers” (immatics biotechnologies GmbH, priority 2015, dated 2018)

Legend:
[1] = system: HLA-A*02; experiment: MHC binding assay by UV-ligand exchange and beta2m ELISA, HLA-A*02; set-up: species or system human; details: binding to HLA-A*02 ranged by peptide exchange yield (UV-ligand exchange, β2m ELISA)
Text: (§1) MHC Binding Assays Candidate peptides for T cell based therapies according to the present invention were further tested for their MHC binding capacity (affinity). The individual peptide-MHC complexes were produced by UV-ligand exchange, where a UV-sensitive peptide is cleaved upon UV-irradiation, and exchanged with the peptide of interest as analyzed. Only peptide candidates that can effectively bind and stabilize the peptide-receptive MHC molecules prevent dissociation of the MHC complexes. To determine the yield of the exchange reaction, an ELISA was performed based on the detection of the light chain (β2m) of stabilized MHC complexes. The assay was performed as generally described in Rodenko et al. (Rodenko et al., 2006).
(§2) 96 well MAXISorp plates (NUNC) were coated over night with 2 ug/ml streptavidin in PBS at room temperature, washed 4× and blocked for 1 h at 37° C. in 2% BSA containing blocking buffer. Refolded HLA-A*02:01/MLA-001 monomers served as standards, covering the range of 15-500 ng/ml. Peptide-MHC monomers of the UV-exchange reaction were diluted 100 fold in blocking buffer. Samples were incubated for 1 h at 37° C., washed four times, incubated with 2 ug/ml HRP conjugated anti-β2m for 1 h at 37° C., washed again and detected with TMB solution that is stopped with […]. Absorption was measured at 450 nm. Candidate peptides that show a high exchange yield (preferably higher than 50%, most preferred higher than 75%) are generally preferred for a generation and production of antibodies or fragments thereof, and/or T cell receptors or fragments thereof, as they show sufficient avidity to the MHC molecules and prevent dissociation of the MHC complexes.

[2] = system: CD8+ T cells; experiment: In vitro T-cell priming assay (aAPCs loaded with peptide/MHC and anti-CD28, multimer staining readout); assay type: cell-based, human; details: for Wells positive [%]: in vitro immunogenicity of HLA class I peptides; for Wells (in vitro immunogenicity of HLA class I peptides): CD8+ T cells of healthy donors, three stimulation cycles with peptide/MHC and anti-CD28 coated beads
Description: In an aspect, the peptides are pre-screened for immunogenicity before being included in the warehouse. By way of example, and not limitation, the immunogenicity of the peptides included in the warehouse is determined by a method comprising in vitro T-cell priming through repeated stimulations of CD8+ T cells from healthy donors with artificial antigen presenting cells loaded with peptide/MHC complexes and anti-CD28 antibody.
In order to obtain information regarding the immunogenicity of the TUMAPs of the present invention, the inventors performed investigations using an in vitro T-cell priming assay based on repeated stimulations of CD8+ T cells with artificial antigen presenting cells (aAPCs) loaded with peptide/MHC complexes and anti-CD28 antibody.
In order to perform in vitro stimulations by artificial antigen presenting cells loaded with peptide-MHC complex (pMHC) and anti-CD28 antibody, the inventors first isolated CD8+ T cells from fresh HLA-A*02 leukapheresis products via positive selection using CD8 microbeads (Miltenyi Biotec, Bergisch-Gladbach, Germany) of healthy donors obtained from the University clinics Mannheim, Germany, after informed consent.
PBMCs and isolated CD8+ lymphocytes were incubated in T-cell medium (TCM) until use consisting of RPMI-Glutamax (Invitrogen, Karlsruhe, Germany) supplemented with 10% heat inactivated human AB serum (PAN-Biotech, Aidenbach, Germany), 100 U/ml Penicillin/100 μg/ml Streptomycin (Cambrex, Cologne, Germany), 1 mM sodium pyruvate (CC Pro, Oberdorla, Germany), 20 μg/ml Gentamycin (Cambrex). 2.5 ng/ml IL7 (PromoCell, Heidelberg, Germany) and 10 U/ml IL-2 (Novartis Pharma, Nürnberg, Germany) were also added to the TCM at this step.
Generation of pMHC/anti-CD28 coated beads, T-cell stimulations and readout was performed in a highly defined in vitro system using four different pMHC molecules per stimulation condition and 8 different pMHC molecules per readout condition.
The purified co-stimulatory mouse IgG2a anti human CD28 Ab 9.3 (Jung et al., 1987) was chemically biotinylated using Sulfo-N-hydroxysuccinimidobiotin as recommended by the manufacturer (Perbio, Bonn, Germany). Beads used were 5.6 μm diameter streptavidin coated polystyrene particles (Bangs Laboratories, Illinois, USA).
pMHC used for positive and negative control stimulations were A*0201/MLA-001 (peptide […] (SEQ ID NO. 303) from modified Melan-A/MART-1) and A*0201/DDX5-001 ([…] from DDX5, SEQ ID NO. 304), respectively.
800.000 beads/200 μl were coated in 96-well plates in the presence of 4×12.5 ng different biotin-pMHC, washed and 600 ng biotin anti-CD28 were added subsequently in a volume of 200 μl. Stimulations were initiated in 96-well plates by co-incubating 1×10^6 CD8+ T cells with 2×10^5 washed coated beads in 200 μl TCM supplemented with 5 ng/ml IL-12 (PromoCell) for 3 days at 37° C. Half of the medium was then exchanged by fresh TCM supplemented with 80 U/ml IL-2 and incubating was continued for 4 days at 37° C. This stimulation cycle was performed for a total of three times. For the pMHC multimer readout using 8 different pMHC molecules per condition, a two-dimensional combinatorial coding approach was used as previously described (Andersen et al., 2012) with minor modifications encompassing coupling to 5 different fluorochromes. Finally, multimeric analyses were performed by staining the cells with Live/dead near IR dye (Invitrogen, Karlsruhe, Germany), CD8-FITC antibody clone SK1 (BD, Heidelberg, Germany) and fluorescent pMHC multimers. For analysis, a BD LSRII SORP cytometer equipped with appropriate lasers and filters was used. Peptide specific cells were calculated as percentage of total CD8+ cells. Evaluation of multimeric analysis was done using the FlowJo software (Tree Star, Oregon, USA). In vitro priming of specific multimer+CD8+ lymphocytes was detected by comparing to negative control stimulations.

[3] = system: HLA-A*24; experiment: MHC binding assay by UV-ligand exchange and beta2m ELISA, HLA-A*24; set-up: species or system human; details: binding to HLA-A*24 ranged by peptide exchange yield (UV-ligand exchange, β2m ELISA)
Text: as §1, §2

[4] = system: advanced non-resectable HCC; details: patients with advanced non-resectable HCC; cited from earlier work
[5] = biological target: HLA-A2 (Homo sapiens, UniProt P04439, D140Y/D185E/D98H/E176V/E277Q/G131W/G231S/I119V/I121R/I166T/I218V/L10V/L300P/L318F/N151K/N90K/P208A/P217A/Q86G/Q94H/R138H/R169H/T345S); details: prediction in US20150306197 A1 / US20110142842 A1, not tested further; cited from earlier work

1 (LLYPEPWSV; listed as Homo sapiens) [compound 1]
Peptide exchange [1]: ++++ (> = 75% = ++++)

3 (KLEENGDLYL; listed as Homo sapiens) [compound 3]
Peptide exchange [1]: ++++ (> = 75% = ++++)

4 (KLMPGTYTL; listed as Homo sapiens) [compound 4]
Wells positive [%] [2]: + (<20% = +) | Peptide exchange [1]: ++++ (> = 75% = ++++)

12 (GLLPLLHRA; listed as Homo sapiens) [compound 12]
Wells positive [%] [2]: ++++ (> = 70% = ++++) | Peptide exchange [1]: ++++ (> = 75% = ++++)

14 (ILAKDLFEI; listed as Homo sapiens) [compound 14]
Peptide exchange [1]: ++++ (> = 75% = ++++)

16 (YTLDIPVLFGV; listed as Homo sapiens) [compound 16]
Peptide exchange [1]: ++++ (> = 75% = ++++)

34 (FLLATEVVTV; listed as Homo sapiens) [compound 34]
Peptide exchange [1]: ++++ (> = 75% = ++++)

51 (LLFSRLCGA; listed as Homo sapiens) [compound 51]
Peptide exchange [1]: ++++ (> = 75% = ++++)

84 (ALCPRIHEV; listed as Homo sapiens) [compound 84]
Peptide exchange [1]: ++++ (> = 75% = ++++)

92 (GLLFSLRSV; listed as Homo sapiens) [compound 92]
Peptide exchange [1]: ++++ (> = 75% = ++++)

95 (GLLGSLFFL; listed as Homo sapiens) [compound 95]
Peptide exchange [1]: ++++ (> = 75% = ++++)

112 (SLGKFTFDV; listed as Homo sapiens) [compound 112]
Peptide exchange [1]: ++++ (> = 75% = ++++)

125 (SLADYEHFV; listed as Homo sapiens) [compound 125]
Peptide exchange [1]: ++++ (> = 75% = ++++)

126 (QMFQYFITV; listed as Homo sapiens) [compound 126]
Peptide exchange [1]: ++++ (> = 75% = ++++)

129 (RLQDILWFL; listed as Homo sapiens) [compound 129]
Peptide exchange [1]: ++++ (> = 75% = ++++)

133 (ALLPRLHQL; listed as Homo sapiens) [compound 133]
Peptide exchange [1]: ++++ (> = 75% = ++++)

147 (YLMDDTVEI; listed as Homo sapiens) [compound 147]
Peptide exchange [1]: ++++ (> = 75% = ++++)

153 (FISERVEVV; listed as Homo sapiens) [compound 153]
Peptide exchange [1]: ++++ (> = 75% = ++++)

158 (HYSQELSLLYL; listed as Homo sapiens) [compound 158]
Wells positive [%] [2]: + (<20% = +) | Peptide exchange [3]: ++++ (> = 75% = ++++)

159 (LYNKGFIYL; listed as Homo sapiens) [compound 159]
Wells positive [%] [2]: ++++ (> = 70% = ++++) | Peptide exchange [3]: ++++ (> = 75% = ++++)

163 (DYLKGLASF; listed as Homo sapiens) [compound 163]
Wells positive [%] [2]: + (<20% = +) | Peptide exchange [3]: ++++ (> = 75% = ++++)

165 (DYTTWTALL; listed as Homo sapiens) [compound 165]
Wells positive [%] [2]: + (<20% = +) | Peptide exchange [3]: ++++ (> = 75% = ++++)

167 (NYINRILKL; listed as Homo sapiens) [compound 167]
Wells positive [%] [2]: + (<20% = +) | Peptide exchange [3]: ++++ (> = 75% = ++++)

204 (TYELRYFQI; listed as Homo sapiens) [compound 204]
Wells positive [%] [2]: + (<20% = +) | Peptide exchange [3]: ++++ (> = 75% = ++++)

229 (AILAHLNTV; listed as Homo sapiens) [compound 229]
Peptide exchange [1]: ++++ (> = 75% = ++++)

245 (SLLDLPLSL; listed as Homo sapiens) [compound 245]
Peptide exchange [1]: ++++ (> = 75% = ++++)

248 (YLDRFLAGV; listed as Homo sapiens) [compound 248]
Peptide exchange [1]: ++++ (> = 75% = ++++)

249 (GLCERLVSL; listed as Homo sapiens) [compound 249]
Wells positive [%] [2]: + (<20% = +) | Peptide exchange [1]: ++++ (> = 75% = ++++)

257 (GLYTDPCGV; listed as Homo sapiens) [compound 257]
Peptide exchange [1]: ++++ (> = 75% = ++++)

258 (LLSERFINV; listed as Homo sapiens) [compound 258]
Peptide exchange [1]: ++++ (> = 75% = ++++)

291 (KLDETGNSL; listed as Homo sapiens) [compound 291]
Wells (in vitro immunogenicity of HLA class I peptides) [2]: + (<20% = +)

292 (GMMTAILGV; listed as Homo sapiens) [compound 292]
Wells (in vitro immunogenicity of HLA class I peptides) [2]: + (<20% = +)

293 (FLVDGSWSI; listed as Homo sapiens) [compound 293]
Wells (in vitro immunogenicity of HLA class I peptides) [2]: + (<20% = +)

296 (TYVDSSHTI; listed as Homo sapiens) [compound 296]
Wells (in vitro immunogenicity of HLA class I peptides) [2]: + (<20% = +)

298 (RYLEGTSCI; listed as Homo sapiens) [compound 298]
Wells (in vitro immunogenicity of HLA class I peptides) [2]: + (<20% = +)

300 (AYVLRLETL; listed as Homo sapiens) [compound 300]
Wells (in vitro immunogenicity of HLA class I peptides) [2]: + (<20% = +)

301 (AYKPGALTF; listed as Homo sapiens) [compound 301]
Wells (in vitro immunogenicity of HLA class I peptides) [2]: + (<20% = +)

CNC(=O)c1cc(Oc2ccc(NC(=O)Nc3ccc(Cl)c(C(F)(F)F)c3)cc2)ccn1 [Sorafenib]
increase of survival [4]: about 3 months

KLFTSVFGV (listed as Homo sapiens) [SEQ ID No. 305]
predicted binding to HLA-A2 / HLA-A*0201 [5]: binding to HLA-A*0201
